Values quoted from earlier work in US8809393B2, “Injectable preparations of diclofenac and its pharmaceutically acceptable salts” (Troikaa Pharmaceuticals Ltd, priority 2005, dated 2014).

Tested on: erythrocytes
Details: aqueous solution of 2% propylene glycol iso-osmotic with serum, in 45 min

Structure (SMILES): CC(O)CO (stereo not shown) [propylene glycol]
- haemolysis of erythrocytes: 100%
